Reference: ChEMBL document CHEMBL5537119 (Eur J Med Chem, 2024)
Activity calls are given as the source filed them. The rule behind the calls is not given here.

How the values were obtained:
THP-1 [1] = test: Induction of apoptosis in human THP-1 cells assessed as caspase3/7 activation at 5 uM incubated for 48 hrs by Hoechst 33342 staining based assay; assay type: functional, cell-based
THP-1 [2] = test: Inhibition of Class I/IIb HDAC in human THP-1 cells at 100 uM preincubated for 18 hrs followed by substrate addition and measured after 3 hrs by fluorescence based microplate reader assay relative to control; assay type: cell-based; conditions: time 21.0 hrs
THP-1 [3] = test: Effect on p21 protein expression in human THP-1 cells assessed as increase in p21 protein expression level at 5 uM incubated for 24 hrs by Western blot analysis; assay type: functional, cell-based
THP-1 [4] = test: Induction of apoptosis in human THP-1 cells assessed as subG1 population at 5 uM incubated for 48 hrs by Propidium iodide staining based flow cytometric analysis; assay type: functional, cell-based
Histone deacetylase 8 = molecular target: T1, Histone deacetylase 8 (Homo sapiens, UniProt Q9BY41); test: Inhibition of human recombinant HDAC8 using Boc-Lys-(Tfa)-AMC as substrate preincubated for 5 mins followed by substrate addition and measured after 90 mins by fluorescence based microplate reader analysis
T1 sequence (Q9BY41 whole entry): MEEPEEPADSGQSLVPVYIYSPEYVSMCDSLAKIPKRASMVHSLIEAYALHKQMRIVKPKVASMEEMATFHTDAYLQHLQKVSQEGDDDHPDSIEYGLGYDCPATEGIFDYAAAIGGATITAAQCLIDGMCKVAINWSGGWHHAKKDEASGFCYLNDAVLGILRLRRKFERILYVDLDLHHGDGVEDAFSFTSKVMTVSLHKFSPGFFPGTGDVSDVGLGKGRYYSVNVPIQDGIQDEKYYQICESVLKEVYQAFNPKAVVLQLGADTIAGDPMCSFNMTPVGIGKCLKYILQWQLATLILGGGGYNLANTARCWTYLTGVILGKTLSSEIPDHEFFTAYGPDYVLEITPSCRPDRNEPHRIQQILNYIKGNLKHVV

Histone deacetylase 5 = Histone deacetylase 5 (Homo sapiens, UniProt Q9UQL6); test: Inhibition of HDAC5 (unknown origin)
[5] = Inhibition of Class IIa/8 HDAC in human THP-1 cells preincubated for 18 hrs followed by substrate addition and measured after 3 hrs by fluorescence based microplate reader assay; assay type: cell-based
THP-1 [6] = test: Synergistic induction of apoptosis in human THP-1 cells assessed as increase in subG1 population at 5 uM incubated for 48 hrs in the presence of 7.9 nM bortezomib by Propidium iodide staining based flow cytometric analysis; assay type: functional, cell-based
CAL-27 [7] = test: Antitumor activity against human CAL-27 cells without HDAC4 expression xenografted in chick embryo chorio allantoic membrane assessed as reduction in cell proliferation at 5 uM; assay type: functional, cell-based
Histone deacetylase 3 = Histone deacetylase 3 (Homo sapiens, UniProt O15379); test: Inhibition of HDAC3 (unknown origin)
CAL-27 [8] = test: Antiproliferative activity against human CAL-27 cells overexpressing HDAC4 assessed as inhibition of cell growth incubated for 72 hrs by MTT assay; assay type: functional, cell-based; conditions: CAL-27, 72 h
THP-1 [9] = test: Synergistic induction of apoptosis in human THP-1 cells assessed as increase in caspase3/7 activation at 5 uM incubated for 48 hrs in the presence of 7.9 nM bortezomib by Hoechst 33342 staining based assay; assay type: functional, cell-based
THP-1 [10] = test: Antiproliferative activity against human THP-1 cells assessed as reduction in cell viability at 100 uM incubated for 72 hrs by MTT assay relative to control; assay type: functional
[11] = molecular target: T2, Protein deacetylase HDAC6 (Homo sapiens, UniProt Q9UBN7); test: Inhibition of human recombinant HDAC6 using Boc-Lys(Ac)-AMC as substrate preincubated for 5 mins followed by substrate addition and measured after 90 mins by fluorescence based microplate reader analysis
T2 sequence (Q9UBN7 whole entry): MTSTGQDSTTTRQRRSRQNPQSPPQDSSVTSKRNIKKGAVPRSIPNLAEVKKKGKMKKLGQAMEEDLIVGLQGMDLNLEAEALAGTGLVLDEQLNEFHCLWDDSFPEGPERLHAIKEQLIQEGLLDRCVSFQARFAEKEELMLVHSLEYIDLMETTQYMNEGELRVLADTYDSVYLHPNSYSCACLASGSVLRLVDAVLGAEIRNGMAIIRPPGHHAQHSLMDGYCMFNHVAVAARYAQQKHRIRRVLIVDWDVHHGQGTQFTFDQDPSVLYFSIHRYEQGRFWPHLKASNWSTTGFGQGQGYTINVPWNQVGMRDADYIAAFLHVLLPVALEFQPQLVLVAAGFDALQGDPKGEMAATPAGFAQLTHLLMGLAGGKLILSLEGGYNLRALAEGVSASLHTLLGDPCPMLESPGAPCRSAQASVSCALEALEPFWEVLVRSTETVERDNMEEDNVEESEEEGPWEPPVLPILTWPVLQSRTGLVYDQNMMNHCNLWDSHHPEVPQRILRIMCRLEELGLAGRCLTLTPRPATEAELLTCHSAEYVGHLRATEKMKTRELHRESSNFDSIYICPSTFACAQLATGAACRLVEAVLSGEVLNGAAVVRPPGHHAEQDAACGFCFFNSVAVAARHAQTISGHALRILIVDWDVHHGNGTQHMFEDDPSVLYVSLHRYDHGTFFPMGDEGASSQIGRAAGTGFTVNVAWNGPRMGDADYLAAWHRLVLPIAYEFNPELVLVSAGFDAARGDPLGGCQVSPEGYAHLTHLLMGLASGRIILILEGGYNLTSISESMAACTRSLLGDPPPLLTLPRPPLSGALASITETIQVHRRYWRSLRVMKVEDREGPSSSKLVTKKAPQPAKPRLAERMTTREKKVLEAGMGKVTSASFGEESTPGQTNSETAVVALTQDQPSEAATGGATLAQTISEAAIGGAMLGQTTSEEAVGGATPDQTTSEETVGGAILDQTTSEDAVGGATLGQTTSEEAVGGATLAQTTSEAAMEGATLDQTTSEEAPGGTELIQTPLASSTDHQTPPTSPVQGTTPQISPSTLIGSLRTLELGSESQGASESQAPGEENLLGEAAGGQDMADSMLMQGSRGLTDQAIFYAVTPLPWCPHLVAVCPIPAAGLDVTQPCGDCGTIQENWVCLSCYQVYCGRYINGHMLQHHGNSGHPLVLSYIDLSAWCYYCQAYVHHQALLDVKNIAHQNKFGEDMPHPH

Histone deacetylase 4 = Histone deacetylase 4 (Homo sapiens, UniProt P56524); test: Inhibition of GST-tagged HDAC4 (unknown origin)
CAL-27 [12] = test: Antitumor activity against human CAL-27 cells overexpressing HDAC4 implanted in chick embryo chorio allantoic membrane assessed as reduction in cell proliferation at 5 uM; assay type: functional, cell-based
THP-1 [13] = test: Synergistic effect on p21 protein expression in human THP-1 cells assessed as increase in p21 protein expression level at 5 uM incubated for 24 hrs in the presence of 7.9 nM bortezomib by Western blot analysis; assay type: functional, cell-based
Histone deacetylase 11 = molecular target: T3, Histone deacetylase 11 (Homo sapiens, UniProt Q96DB2); test: Inhibition of HDAC11 (unknown origin)
T3 sequence (Q96DB2 whole entry): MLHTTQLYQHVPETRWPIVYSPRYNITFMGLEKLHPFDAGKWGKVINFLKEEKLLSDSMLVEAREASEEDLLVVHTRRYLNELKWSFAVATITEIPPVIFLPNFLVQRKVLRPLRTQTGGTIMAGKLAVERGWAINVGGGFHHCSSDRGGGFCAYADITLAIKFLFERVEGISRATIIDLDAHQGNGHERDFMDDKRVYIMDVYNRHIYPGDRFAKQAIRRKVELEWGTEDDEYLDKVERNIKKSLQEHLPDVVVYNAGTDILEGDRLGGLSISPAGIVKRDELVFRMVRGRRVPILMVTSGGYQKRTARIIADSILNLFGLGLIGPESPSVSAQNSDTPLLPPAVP

CAL-27 [14] = test: Antiproliferative activity against human CAL-27 cells without HDAC4 expression assessed as inhibition of cell growth incubated for 72 hrs by MTT assay; assay type: functional, cell-based; conditions: CAL-27, 72 h
Histone deacetylase 2 = Histone deacetylase 2 (Homo sapiens, UniProt Q92769); test: Inhibition of human recombinant HDAC2 using Boc-Lys(Ac)-AMC as substrate preincubated for 5 mins followed by substrate addition and measured after 90 mins by fluorescence based microplate reader analysis
[15] = Inhibition of Class I/IIb HDAC in human THP-1 cells preincubated for 18 hrs followed by substrate addition and measured after 3 hrs by fluorescence based microplate reader assay; assay type: cell-based
THP-1 [16] = test: cells; conditions: Homo sapiens, THP-1, 72 h
Description: Antiproliferative activity against human THP-1 cells assessed as inhibition of cell growth incubated for 72 hrs by MTT assay

THP-1 [17] = test: Inhibition of Class IIa/8 HDAC in human THP-1 cells at 100 uM preincubated for 18 hrs followed by substrate addition and measured after 3 hrs by fluorescence based microplate reader assay relative to control; assay type: cell-based; conditions: time 21.0 hrs, values are per cent of control
[18] = Effect on p21 mRNA expression in human THP-1 cells assessed as fold increase in p21 mRNA expression at 7.9 uM incubated for 24 hrs by RT-PCR analysis; assay type: functional
THP-1 [19] = test: Effect on p21 protein expression in human THP-1 cells assessed as increase in p21 protein expression level at 7.9 uM incubated for 24 hrs by Western blot analysis; assay type: functional, cell-based

Sequence of Histone deacetylase 4 (P56524 whole entry): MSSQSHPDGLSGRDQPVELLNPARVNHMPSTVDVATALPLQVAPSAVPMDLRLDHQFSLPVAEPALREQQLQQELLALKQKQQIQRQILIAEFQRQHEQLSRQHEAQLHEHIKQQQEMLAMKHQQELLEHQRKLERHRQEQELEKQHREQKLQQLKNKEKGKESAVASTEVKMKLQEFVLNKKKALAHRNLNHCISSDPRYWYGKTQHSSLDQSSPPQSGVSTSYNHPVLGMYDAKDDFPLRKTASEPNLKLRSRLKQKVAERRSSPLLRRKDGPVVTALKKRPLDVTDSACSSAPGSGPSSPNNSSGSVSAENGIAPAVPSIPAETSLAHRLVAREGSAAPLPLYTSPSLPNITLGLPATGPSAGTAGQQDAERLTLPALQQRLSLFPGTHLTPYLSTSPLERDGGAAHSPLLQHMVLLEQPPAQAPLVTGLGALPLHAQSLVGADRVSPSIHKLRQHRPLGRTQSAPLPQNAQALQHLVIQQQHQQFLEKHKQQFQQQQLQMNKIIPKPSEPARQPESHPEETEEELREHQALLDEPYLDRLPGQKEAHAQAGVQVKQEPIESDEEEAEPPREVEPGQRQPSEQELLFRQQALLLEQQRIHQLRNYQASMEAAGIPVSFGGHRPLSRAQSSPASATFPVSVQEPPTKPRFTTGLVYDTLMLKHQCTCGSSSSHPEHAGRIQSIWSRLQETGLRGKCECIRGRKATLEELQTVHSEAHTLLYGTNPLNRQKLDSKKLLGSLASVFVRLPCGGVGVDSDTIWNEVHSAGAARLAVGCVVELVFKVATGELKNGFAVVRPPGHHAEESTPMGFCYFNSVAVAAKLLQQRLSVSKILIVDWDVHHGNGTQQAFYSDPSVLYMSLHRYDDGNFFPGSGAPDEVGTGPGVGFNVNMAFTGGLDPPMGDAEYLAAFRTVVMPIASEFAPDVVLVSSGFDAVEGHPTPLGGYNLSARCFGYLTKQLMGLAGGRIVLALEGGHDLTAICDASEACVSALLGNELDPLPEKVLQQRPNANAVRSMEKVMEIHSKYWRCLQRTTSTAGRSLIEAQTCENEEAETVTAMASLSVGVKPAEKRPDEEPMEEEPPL
Sequence of Histone deacetylase 5 (Q9UQL6 whole entry): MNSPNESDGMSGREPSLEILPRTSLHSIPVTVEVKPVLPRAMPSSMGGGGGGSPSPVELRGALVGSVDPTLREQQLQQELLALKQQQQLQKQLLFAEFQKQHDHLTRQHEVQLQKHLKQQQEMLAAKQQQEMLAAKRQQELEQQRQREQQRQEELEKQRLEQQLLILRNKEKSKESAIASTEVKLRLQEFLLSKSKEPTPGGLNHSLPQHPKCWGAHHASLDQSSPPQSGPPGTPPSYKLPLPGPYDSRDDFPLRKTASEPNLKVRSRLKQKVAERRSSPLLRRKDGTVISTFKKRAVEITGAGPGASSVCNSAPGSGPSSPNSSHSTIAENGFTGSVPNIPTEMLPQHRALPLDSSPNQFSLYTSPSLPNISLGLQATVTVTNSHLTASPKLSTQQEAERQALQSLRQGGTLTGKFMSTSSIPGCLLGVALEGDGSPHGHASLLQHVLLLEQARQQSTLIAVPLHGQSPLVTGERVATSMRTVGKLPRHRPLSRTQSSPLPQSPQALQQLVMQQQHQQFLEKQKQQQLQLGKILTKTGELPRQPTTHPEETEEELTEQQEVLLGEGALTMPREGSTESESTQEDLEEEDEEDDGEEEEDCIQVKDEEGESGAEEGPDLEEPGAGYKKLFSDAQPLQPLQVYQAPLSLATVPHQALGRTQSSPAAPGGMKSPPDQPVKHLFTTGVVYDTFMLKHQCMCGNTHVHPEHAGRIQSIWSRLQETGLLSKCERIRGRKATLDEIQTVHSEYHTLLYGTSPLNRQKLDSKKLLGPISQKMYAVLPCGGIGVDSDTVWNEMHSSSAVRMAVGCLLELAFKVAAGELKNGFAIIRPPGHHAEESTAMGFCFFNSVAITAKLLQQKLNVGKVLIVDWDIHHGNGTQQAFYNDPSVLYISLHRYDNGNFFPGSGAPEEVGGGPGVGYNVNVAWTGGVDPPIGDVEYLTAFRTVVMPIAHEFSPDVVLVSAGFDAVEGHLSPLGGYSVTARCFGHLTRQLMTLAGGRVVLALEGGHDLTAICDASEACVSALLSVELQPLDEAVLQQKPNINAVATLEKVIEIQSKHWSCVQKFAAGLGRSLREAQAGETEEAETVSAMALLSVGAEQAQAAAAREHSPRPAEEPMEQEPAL
Sequence of Histone deacetylase 2 (Q92769 whole entry): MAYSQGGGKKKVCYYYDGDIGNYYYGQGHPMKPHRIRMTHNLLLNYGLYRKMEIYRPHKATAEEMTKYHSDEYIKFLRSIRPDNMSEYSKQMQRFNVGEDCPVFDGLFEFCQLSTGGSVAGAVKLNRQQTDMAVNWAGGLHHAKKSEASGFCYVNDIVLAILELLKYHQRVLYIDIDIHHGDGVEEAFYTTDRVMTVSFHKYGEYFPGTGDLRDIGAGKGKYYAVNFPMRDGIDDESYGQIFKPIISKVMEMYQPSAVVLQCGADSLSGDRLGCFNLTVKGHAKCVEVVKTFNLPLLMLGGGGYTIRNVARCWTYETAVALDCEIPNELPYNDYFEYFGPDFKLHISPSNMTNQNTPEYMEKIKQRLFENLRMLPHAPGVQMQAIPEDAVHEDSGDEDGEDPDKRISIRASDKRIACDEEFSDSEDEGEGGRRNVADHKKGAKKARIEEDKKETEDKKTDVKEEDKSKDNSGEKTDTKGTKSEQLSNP
Sequence of Histone deacetylase 3 (O15379 whole entry): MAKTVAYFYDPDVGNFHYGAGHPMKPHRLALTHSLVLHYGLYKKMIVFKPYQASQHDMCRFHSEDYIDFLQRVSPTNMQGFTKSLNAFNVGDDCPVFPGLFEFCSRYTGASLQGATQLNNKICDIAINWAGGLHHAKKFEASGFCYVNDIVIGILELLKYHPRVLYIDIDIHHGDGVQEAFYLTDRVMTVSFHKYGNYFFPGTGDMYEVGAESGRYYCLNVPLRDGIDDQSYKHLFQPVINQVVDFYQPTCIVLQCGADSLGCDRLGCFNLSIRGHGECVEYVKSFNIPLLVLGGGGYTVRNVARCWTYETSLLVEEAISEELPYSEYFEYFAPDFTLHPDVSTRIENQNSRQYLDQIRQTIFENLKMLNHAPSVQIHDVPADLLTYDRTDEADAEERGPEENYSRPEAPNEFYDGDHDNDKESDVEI

Which results are given for `CCN(CC)CCNC(=O)c1ccc(-c2noc(C(F)(F)F)n2)cc1`?
Activity (THP-1 [1]): inactive; inhibition (THP-1 [2]): 93%; Activity (THP-1 [3]): Active; Activity (THP-1 [4]): inactive; IC50 (Histone deacetylase 8): 4.26 µM; IC50 (Histone deacetylase 5): 19 nM; IC50 [5]: 77 nM; Activity (THP-1 [6]): Active; Activity (CAL-27 [7]): Active; IC50 (Histone deacetylase 3): 3.82 µM; IC50 (CAL-27 [8]): 8.63 µM; Activity (THP-1 [9]): Active; Activity (THP-1 [10]): 80%; IC50 [11]: 5.79 µM; IC50 (Histone deacetylase 4): 17 nM; Activity (CAL-27 [12]): Active; Activity (THP-1 [13]): Active; IC50 (Histone deacetylase 11): 66 µM; IC50 (CAL-27 [14]): 22.5 µM; IC50 (Histone deacetylase 2): 6.13 µM; IC50 [15]: 10.9 µM; IC50 (THP-1 [16]): 9.24 µM; residual activity (THP-1 [17]): 100%

For `CC(C)C[C@H](NC(=O)[C@H](Cc1ccccc1)NC(=O)c1cnccn1)B(O)O` [BORTEZOMIB], which “fold change (FC)” value [18] is on record?
The value was 2.5.

And the IC50 (CAL-27 [8])?
The IC50 was 4.73 µM.

And the Activity (THP-1 [19])?
The Activity was “Active”.

What about the IC50 (CAL-27 [14]) of the same compound?
The IC50 was 7.6 µM.

What about the IC50 (THP-1 [16]) of the same compound?
Its IC50 is 0.00628 µM.
